Earlier results on 1 compound are cited in patent publication US20060121016A1, “Methods and compositions for treatment of free radical injury” (priority 2004, published 2006).

The conditions of the data set: administered both before and after the operation.

Turning to `Oc1ncnc2[nH]ncc12` [allopurinol], the “Reduction of incidence of complication following surgery” value is 70%.
